From patent publication US7868135B2, “Compositions of lipopeptide antibiotic derivatives and methods of use thereof” (priority 2003, dated 2011)
Starred links: 1 amine or outer side, 2 acyl side, 3 side chain; linkers in the order of their positions; H or OH if unused. Positions of bridges follow the written chain, without caps; N, C: chain ends. Non-standard residues stand in square brackets, D forms with d. Residues, ends and D or L forms follow the SMILES beside them. ξ: configuration not given here. *: point of attachment. X14 = CC(NC(=O)[C@@H](N)CNC(=O)CCN)C(N[*:1])C(=O)[*:2]; X6 = CC(NC(=O)C12CC3CC(CC(C3)C1)C2)C(N[*:1])C(=O)[*:2]; X10 = CC(C)=CCC/C(C)=C/C(=O)NC(C)C(N[*:1])C(=O)[*:2]; X11 = CC(NC(=O)CC1CC2CCC1C2)C(N[*:1])C(=O)[*:2]; X40 = CC(NC(=O)CCN1CCNCC1)C(N[*:1])C(=O)[*:2]; X15 = CC(NC(=O)CCNC(N)=O)C(N[*:1])C(=O)[*:2]; ξAbu(βξ-NH2) = CC(N[*:3])C(N[*:1])C(=O)[*:2]; X21 = CC(=O)SCC(=O)NC(C)C(N[*:1])C(=O)[*:2]; X26 = COC(=O)CC(=O)NC(C)C(N[*:1])C(=O)[*:2]; X41 = CC(NC(=O)C1CCCCC1)C(N[*:1])C(=O)[*:2]; X16 = CCC(=O)C(=O)NC(C)C(N[*:1])C(=O)[*:2]; X24 = C/C=C/C(=O)NC(C)C(N[*:1])C(=O)[*:2]; X20 = CC#CC(=O)NC(C)C(N[*:1])C(=O)[*:2]; X39 = C=CC(=O)NC(C)C(N[*:1])C(=O)[*:2]; Pentadecanoyl = CCCCCCCCCCCCCCC(=O)*; ξAsp(βξ-Me) = CC(C(=O)O)C(N)C(=O)O; X27 = CCCCCCCC/C=C/CCCCCCCC(=O)*; Pip = O=C(O)[CH]1CCCCN1; ξD = NC(CC(=O)O)C(=O)O; ξPip = O=C(O)C1CCCCN1; ξV = CC(C)C(N)C(=O)O; ξP = O=C(O)C1CCCN1

These compounds were tested on Staphylococcus aureus (MSSA). Conditions: 24 h.
In short: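 Broth microdilution MIC per NCCLS M7-A6 with doubling serial dilutions, in cation-adjusted Mueller-Hinton broth supplemented with 0.625 mM calcium.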

| MIC [µg/mL] | Structure (SMILES) |
| --- | --- |
| 32 | CCCCCCCCCCCCCCC(=O)NC(CC(=O)O)C(=O)NC1C(=O)N2CCCCC2C(=O)NC(C(C)C(=O)O)C(=O)NC(CC(=O)O)C(=O)NCC(=O)NC(CC(=O)O)C(=O)NCC(=O)NC(C(C)NC(=O)CCCCC)C(=O)NC(C(C)C)C(=O)N2CCCC2C(=O)NC1C (stereo not drawn) [Compound 201, C15-Amphomycin-9-C6] |
| 8 | CCCCCCCCCCCCCCC(=O)NC(CC(=O)O)C(=O)NC1C(=O)N2CCCCC2C(=O)NC(C(C)C(=O)O)C(=O)NC(CC(=O)O)C(=O)NCC(=O)NC(CC(=O)O)C(=O)NCC(=O)NC(C(C)NC(=O)C2CCCCC2)C(=O)NC(C(C)C)C(=O)N2CCCC2C(=O)NC1C (stereo not drawn) [Compound 206, C15-Amphomycin-9-cHexyl] (Pentadecanoyl-D[ξAbu(βξ-NH2)][Pip][ξAsp(βξ-Me)]DGDG[X41]VP; lactam 2-C; configuration not given here) |
| 16 | CCCCCCCCCCCCCCC(=O)NC(CC(=O)O)C(=O)NC1C(=O)N2CCCCC2C(=O)NC(C(C)C(=O)O)C(=O)NC(CC(=O)O)C(=O)NCC(=O)NC(CC(=O)O)C(=O)NCC(=O)NC(C(C)NC(=O)CCC)C(=O)NC(C(C)C)C(=O)N2CCCC2C(=O)NC1C (stereo not drawn) [Compound 207, C15-Amphomycin-9-C4] |
| 4 | CCCCCCCCCCCCCCC(=O)NC(CC(=O)O)C(=O)NC1C(=O)N2CCCCC2C(=O)NC(C(C)C(=O)O)C(=O)NC(CC(=O)O)C(=O)NCC(=O)NC(CC(=O)O)C(=O)NCC(=O)NC(C(C)NC(=O)CC2CC3CCC2C3)C(=O)NC(C(C)C)C(=O)N2CCCC2C(=O)NC1C (stereo not drawn) [Compound 208, C15-Amphomycin-9-(2-Norbornaneacetyl)] (Pentadecanoyl-D[ξAbu(βξ-NH2)][Pip][ξAsp(βξ-Me)]DGDG[X11]VP; lactam 2-C; configuration not given here) |
| 1 | CCCCCCCCCCCCCCC(=O)NC(CC(=O)O)C(=O)NC1C(=O)N2CCCCC2C(=O)NC(C(C)C(=O)O)C(=O)NC(CC(=O)O)C(=O)NCC(=O)NC(CC(=O)O)C(=O)NCC(=O)NC(C(C)NC(=O)CCNC(N)=O)C(=O)NC(C(C)C)C(=O)N2CCCC2C(=O)NC1C (stereo not drawn) [Compound 212, C15-Amphomycin-9-(Carbamoyl-β-Ala)] (Pentadecanoyl-D[ξAbu(βξ-NH2)][Pip][ξAsp(βξ-Me)]DGDG[X15]VP; lactam 2-C; configuration not given here) |
| 2 | C=CC(=O)NC(C)C1NC(=O)CNC(=O)C(CC(=O)O)NC(=O)CNC(=O)C(CC(=O)O)NC(=O)C(C(C)C(=O)O)NC(=O)C2CCCCN2C(=O)C(NC(=O)C(CC(=O)O)NC(=O)CCCCCCCCCCCCCC)C(C)NC(=O)C2CCCN2C(=O)C(C(C)C)NC1=O (stereo not drawn) [Compound 213, C15-Amphomycin-9-Acryl] (Pentadecanoyl-D[ξAbu(βξ-NH2)][Pip][ξAsp(βξ-Me)]DGDG[X39]VP; lactam 2-C; configuration not given here) |
| 16 | CCCCCCCCCCCCCCC(=O)NC(CC(=O)O)C(=O)NC1C(=O)N2CCCCC2C(=O)NC(C(C)C(=O)O)C(=O)NC(CC(=O)O)C(=O)NCC(=O)NC(CC(=O)O)C(=O)NCC(=O)NC(C(C)NC(=O)C(=O)CC)C(=O)NC(C(C)C)C(=O)N2CCCC2C(=O)NC1C (stereo not drawn) [Compound 223, C15-Amphomycin-9-(α-Ketobutyl)] (Pentadecanoyl-D[ξAbu(βξ-NH2)][Pip][ξAsp(βξ-Me)]DGDG[X16]VP; lactam 2-C; configuration not given here) |
| 4 | CCCCCCCCCCCCCCC(=O)NC(CC(=O)O)C(=O)NC1C(=O)N2CCCCC2C(=O)NC(C(C)C(=O)O)C(=O)NC(CC(=O)O)C(=O)NCC(=O)NC(CC(=O)O)C(=O)NCC(=O)NC(C(C)NC(=O)C23CC4CC(CC(C4)C2)C3)C(=O)NC(C(C)C)C(=O)N2CCCC2C(=O)NC1C (stereo not drawn) [Compound 232, C15-Amphomycin-9-(1-Adamantanylcarbonyl)] (Pentadecanoyl-D[ξAbu(βξ-NH2)][Pip][ξAsp(βξ-Me)]DGDG[X6]VP; lactam 2-C; configuration not given here) |

More lines, now with the values behind:

| Structure (SMILES) | MIC [µg/mL] |
| --- | --- |
| CCCCCCCCCCCCCCC(=O)NC(CC(=O)O)C(=O)NC1C(=O)N2CCCCC2C(=O)NC(C(C)C(=O)O)C(=O)NC(CC(=O)O)C(=O)NCC(=O)NC(CC(=O)O)C(=O)NCC(=O)NC(C(C)NC(=O)CN(C)C(=O)CCCCCN)C(=O)NC(C(C)C)C(=O)N2CCCC2C(=O)NC1C (stereo not drawn) [Compound 198, C15-Amphomycin-9-Sar-Ahx] | 4 |
| CCCCCCCCCCCCCCC(=O)NC(CC(=O)O)C(=O)NC1C(=O)N2CCCCC2C(=O)NC(C(C)C(=O)O)C(=O)NC(CC(=O)O)C(=O)NCC(=O)NC(CC(=O)O)C(=O)NCC(=O)NC(C(C)NC(=O)[C@@H](N)CNC(=O)CCN)C(=O)NC(C(C)C)C(=O)N2CCCC2C(=O)NC1C (stereo partly drawn) [Compound 200, C15-Amphomycin-9-Dap-(β-N-(β-Ala))] (Pentadecanoyl-[ξD][ξAbu(βξ-NH2)][ξPip][ξAsp(βξ-Me)][ξD]G[ξD]G[X14][ξV][ξP]; lactam 2-C) | 1 |
| CCCCCCCCCCCCCCC(=O)NC(CC(=O)O)C(=O)NC1C(=O)N2CCCCC2C(=O)NC(C(C)C(=O)O)C(=O)NC(CC(=O)O)C(=O)NCC(=O)NC(CC(=O)O)C(=O)NCC(=O)NC(C(C)NC(=O)CCCCCCC)C(=O)NC(C(C)C)C(=O)N2CCCC2C(=O)NC1C (stereo not drawn) [Compound 205, C15-Amphomycin-9-C8] | 16 |
| C/C=C/C(=O)NC(C)C1NC(=O)CNC(=O)C(CC(=O)O)NC(=O)CNC(=O)C(CC(=O)O)NC(=O)C(C(C)C(=O)O)NC(=O)C2CCCCN2C(=O)C(NC(=O)C(CC(=O)O)NC(=O)CCCCCCCCCCCCCC)C(C)NC(=O)C2CCCN2C(=O)C(C(C)C)NC1=O (stereo not drawn) [Compound 218, C15-Amphomycin-9-Crotonyl] (Pentadecanoyl-D[ξAbu(βξ-NH2)][Pip][ξAsp(βξ-Me)]DGDG[X24]VP; lactam 2-C; configuration not given here) | 8 |
| CCCCCCCCCCCCCCC(=O)NC(CC(=O)O)C(=O)NC1C(=O)N2CCCCC2C(=O)NC(C(C)C(=O)O)C(=O)NC(CC(=O)O)C(=O)NCC(=O)NC(CC(=O)O)C(=O)NCC(=O)NC(C(C)NC(=O)CCCCCCCCC)C(=O)NC(C(C)C)C(=O)N2CCCC2C(=O)NC1C (stereo not drawn) [Compound 220, C15-Amphomycin-9-C10] | 2 |
| CCCCCCCCCCCCCCC(=O)NC(CC(=O)O)C(=O)NC1C(=O)N2CCCCC2C(=O)NC(C(C)C(=O)O)C(=O)NC(CC(=O)O)C(=O)NCC(=O)NC(CC(=O)O)C(=O)NCC(=O)NC(C(C)NC(=O)/C=C(\C)CCC=C(C)C)C(=O)NC(C(C)C)C(=O)N2CCCC2C(=O)NC1C (stereo not drawn) [Compound 224, C15-Amphomycin-9-Geranyl] (Pentadecanoyl-D[ξAbu(βξ-NH2)][Pip][ξAsp(βξ-Me)]DGDG[X10]VP; lactam 2-C; configuration not given here) | 8 |
| CC#CC(=O)NC(C)C1NC(=O)CNC(=O)C(CC(=O)O)NC(=O)CNC(=O)C(CC(=O)O)NC(=O)C(C(C)C(=O)O)NC(=O)C2CCCCN2C(=O)C(NC(=O)C(CC(=O)O)NC(=O)CCCCCCCCCCCCCC)C(C)NC(=O)C2CCCN2C(=O)C(C(C)C)NC1=O (stereo not drawn) [Compound 227, C15-Amphomycin-9-(2-Butynyl)] (Pentadecanoyl-D[ξAbu(βξ-NH2)][Pip][ξAsp(βξ-Me)]DGDG[X20]VP; lactam 2-C; configuration not given here) | 32 |
| CCCCCCCCCCCCCCC(=O)NC(CC(=O)O)C(=O)NC1C(=O)N2CCCCC2C(=O)NC(C(C)C(=O)O)C(=O)NC(CC(=O)O)C(=O)NCC(=O)NC(CC(=O)O)C(=O)NCC(=O)NC(C(C)NC(=O)CC(=O)OC)C(=O)NC(C(C)C)C(=O)N2CCCC2C(=O)NC1C (stereo not drawn) [Compound 231] (Pentadecanoyl-D[ξAbu(βξ-NH2)][Pip][ξAsp(βξ-Me)]DGDG[X26]VP; lactam 2-C; configuration not given here) | 8 |
| CCCCCCCCCCCCCCC(=O)NC(CC(=O)O)C(=O)NC1C(=O)N2CCCCC2C(=O)NC(C(C)C(=O)O)C(=O)NC(CC(=O)O)C(=O)NCC(=O)NC(CC(=O)O)C(=O)NCC(=O)NC(C(C)NC(=O)CSC(C)=O)C(=O)NC(C(C)C)C(=O)N2CCCC2C(=O)NC1C (stereo not drawn) [Compound 235, C15-Amphomycin-9-(S-Acetylthioglycolyl)] (Pentadecanoyl-D[ξAbu(βξ-NH2)][Pip][ξAsp(βξ-Me)]DGDG[X21]VP; lactam 2-C; configuration not given here) | 2 |
| CCCCCCCC/C=C/CCCCCCCC(=O)NC(C)C1NC(=O)CNC(=O)C(CC(=O)O)NC(=O)CNC(=O)C(CC(=O)O)NC(=O)C(C(C)C(=O)O)NC(=O)C2CCCCN2C(=O)C(NC(=O)C(CC(=O)O)NC(=O)CCCCCCCCCCCCCC)C(C)NC(=O)C2CCCN2C(=O)C(C(C)C)NC1=O (stereo not drawn) [Compound 238, C15-Amphomycin-9-Oleate] (Pentadecanoyl-D[ξAbu(βξ-NH2)][Pip][ξAsp(βξ-Me)]DGDG[ξAbu(βξ-NH2)](X27)VP; lactam 2-C; configuration not given here) | 1 to 2 |
| CCCCCCCCCCCCCCC(=O)NC(CC(=O)O)C(=O)NC1C(=O)N2CCCCC2C(=O)NC(C(C)C(=O)O)C(=O)NC(CC(=O)O)C(=O)NCC(=O)NC(CC(=O)O)C(=O)NCC(=O)NC(C(C)NC(=O)CCN2CCNCC2)C(=O)NC(C(C)C)C(=O)N2CCCC2C(=O)NC1C (stereo not drawn) [Compound 241] (Pentadecanoyl-D[ξAbu(βξ-NH2)][Pip][ξAsp(βξ-Me)]DGDG[X40]VP; lactam 2-C; configuration not given here) | 1 to 2 |

Same assay, conditions: S. aureus (MSSA), CAMHB supplemented with 0.625 mM calcium, 24 hours at about 37° C.; a range = compound tested multiple times

| Structure (SMILES) | MIC [µg/mL] |
| --- | --- |
| CCCCCCCCCCCCCCC(=O)NC(CC(=O)O)C(=O)NC1C(=O)N2CCCCC2C(=O)NC(C(C)C(=O)O)C(=O)NC(CC(=O)O)C(=O)NCC(=O)NC(CC(=O)O)C(=O)NCC(=O)NC(C(C)NC(=O)[C@@H]2CCC(=O)O2)C(=O)NC(C(C)C)C(=O)N2CCCC2C(=O)NC1C (stereo partly drawn) [Compound 210, C15-Amphomycin-9-((S)-(+)-5-Oxo-2-Tetrahydrofurancarbonyl)] | 2 |
| CCCCCCCCCCCCCCC(=O)NC(CC(=O)O)C(=O)NC1C(=O)N2CCCCC2C(=O)NC(C(C)C(=O)O)C(=O)NC(CC(=O)O)C(=O)NCC(=O)NC(CC(=O)O)C(=O)NCC(=O)NC(C(C)NC(=O)CCCCC(C)=O)C(=O)NC(C(C)C)C(=O)N2CCCC2C(=O)NC1C (stereo not drawn) [Compound 237, C15-Amphomycin-9-(6-Oxoheptanoyl)] | 16 |
